In patent US20250368666A1, “INDAZOLE COMPOUNDS” (TYRA BIOSCIENCES, INC., priority 2022, published 2025):

Key:
Test in all cases: Kinase binding assay (kinase-tagged T7 phage, affinity beads, qPCR), Kd
FGFR1 = molecular target: T1, FGFR1 (Homo sapiens, UniProt P11362); details: read-out: FGFR1 (Kd nM)
T1 construct: made in house; host or cells: E. coli (BL21-derived), T7 phage
Summary of the method: (§1)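 Phage-tagged kinase capture on small-molecule affinity resin, compound competition, qPCR quantitation; Kd from Levenberg-Marquardt Hill fit.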

FGFR3 = molecular target: T2, FGFR3 (Homo sapiens, UniProt P22607); details: read-out: FGFR3 (Kd nM)
T2 construct: made in house; host or cells: E. coli (BL21-derived), T7 phage
Summary of the method: as §1

FGFR2 = molecular target: T3, FGFR2 (Homo sapiens, UniProt P21802); details: read-out: FGFR2 (Kd nM)
T3 construct: made in house; host or cells: E. coli (BL21-derived), T7 phage
Summary of the method: as §1

FGFR3 (V555M) = molecular target: T4, FGFR3 (V555M) (Homo sapiens, UniProt P22607, V555M); details: V555M mutant; read-out: FGFR3 (V555M) (Kd nM)
T4 construct: made in house; host or cells: E. coli (BL21-derived), T7 phage
Summary of the method: as §1

FGFR4 = molecular target: T5, FGFR4 (Homo sapiens, UniProt P22455); details: read-out: FGFR4 (Kd nM)
T5 construct: made in house; host or cells: E. coli (BL21-derived), T7 phage
Summary of the method: as §1

T5 sequence (P22455 22-802): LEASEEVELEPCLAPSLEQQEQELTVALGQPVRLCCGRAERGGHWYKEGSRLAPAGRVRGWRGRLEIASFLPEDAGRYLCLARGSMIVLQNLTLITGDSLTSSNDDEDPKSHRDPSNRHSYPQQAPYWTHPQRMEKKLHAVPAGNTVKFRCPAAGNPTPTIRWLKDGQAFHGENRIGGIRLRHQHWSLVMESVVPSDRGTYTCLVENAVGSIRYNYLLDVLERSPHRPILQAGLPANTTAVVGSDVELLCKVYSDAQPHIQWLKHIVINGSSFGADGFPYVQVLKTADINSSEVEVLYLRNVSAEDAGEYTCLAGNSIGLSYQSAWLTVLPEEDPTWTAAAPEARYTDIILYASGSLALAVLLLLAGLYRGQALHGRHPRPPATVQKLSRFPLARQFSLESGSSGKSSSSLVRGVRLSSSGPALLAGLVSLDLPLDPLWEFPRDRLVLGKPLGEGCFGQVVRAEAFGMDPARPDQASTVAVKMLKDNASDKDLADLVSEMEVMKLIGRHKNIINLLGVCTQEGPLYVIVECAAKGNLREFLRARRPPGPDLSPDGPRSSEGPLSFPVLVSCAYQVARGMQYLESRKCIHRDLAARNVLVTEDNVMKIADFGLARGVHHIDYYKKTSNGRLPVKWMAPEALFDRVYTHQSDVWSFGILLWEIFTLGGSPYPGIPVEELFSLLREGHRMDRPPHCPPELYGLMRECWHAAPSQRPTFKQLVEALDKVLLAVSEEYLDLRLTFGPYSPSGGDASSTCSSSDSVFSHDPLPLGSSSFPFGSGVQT
T1 sequence (P11362 22-822): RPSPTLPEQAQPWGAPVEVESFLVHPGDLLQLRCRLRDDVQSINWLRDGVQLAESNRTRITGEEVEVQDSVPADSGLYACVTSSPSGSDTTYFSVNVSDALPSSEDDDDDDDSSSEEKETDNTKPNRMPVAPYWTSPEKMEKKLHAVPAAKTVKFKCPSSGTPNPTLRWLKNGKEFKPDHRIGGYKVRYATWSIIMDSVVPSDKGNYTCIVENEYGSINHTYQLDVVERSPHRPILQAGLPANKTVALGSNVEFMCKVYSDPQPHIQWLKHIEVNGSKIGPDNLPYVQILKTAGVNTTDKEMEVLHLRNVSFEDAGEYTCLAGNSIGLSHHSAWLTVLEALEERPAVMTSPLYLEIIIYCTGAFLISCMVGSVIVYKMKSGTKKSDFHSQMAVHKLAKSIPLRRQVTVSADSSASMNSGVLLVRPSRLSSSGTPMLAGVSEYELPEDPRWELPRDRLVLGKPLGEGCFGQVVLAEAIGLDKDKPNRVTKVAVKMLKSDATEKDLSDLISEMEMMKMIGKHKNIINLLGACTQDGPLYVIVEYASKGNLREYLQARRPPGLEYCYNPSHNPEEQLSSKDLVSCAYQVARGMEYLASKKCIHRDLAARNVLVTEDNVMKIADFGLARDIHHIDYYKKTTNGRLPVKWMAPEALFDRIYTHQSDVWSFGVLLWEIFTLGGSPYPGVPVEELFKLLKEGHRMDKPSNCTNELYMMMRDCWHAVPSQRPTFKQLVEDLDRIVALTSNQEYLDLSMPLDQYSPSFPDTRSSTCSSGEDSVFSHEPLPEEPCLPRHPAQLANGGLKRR
T4 sequence (P22607 23-806 V555M): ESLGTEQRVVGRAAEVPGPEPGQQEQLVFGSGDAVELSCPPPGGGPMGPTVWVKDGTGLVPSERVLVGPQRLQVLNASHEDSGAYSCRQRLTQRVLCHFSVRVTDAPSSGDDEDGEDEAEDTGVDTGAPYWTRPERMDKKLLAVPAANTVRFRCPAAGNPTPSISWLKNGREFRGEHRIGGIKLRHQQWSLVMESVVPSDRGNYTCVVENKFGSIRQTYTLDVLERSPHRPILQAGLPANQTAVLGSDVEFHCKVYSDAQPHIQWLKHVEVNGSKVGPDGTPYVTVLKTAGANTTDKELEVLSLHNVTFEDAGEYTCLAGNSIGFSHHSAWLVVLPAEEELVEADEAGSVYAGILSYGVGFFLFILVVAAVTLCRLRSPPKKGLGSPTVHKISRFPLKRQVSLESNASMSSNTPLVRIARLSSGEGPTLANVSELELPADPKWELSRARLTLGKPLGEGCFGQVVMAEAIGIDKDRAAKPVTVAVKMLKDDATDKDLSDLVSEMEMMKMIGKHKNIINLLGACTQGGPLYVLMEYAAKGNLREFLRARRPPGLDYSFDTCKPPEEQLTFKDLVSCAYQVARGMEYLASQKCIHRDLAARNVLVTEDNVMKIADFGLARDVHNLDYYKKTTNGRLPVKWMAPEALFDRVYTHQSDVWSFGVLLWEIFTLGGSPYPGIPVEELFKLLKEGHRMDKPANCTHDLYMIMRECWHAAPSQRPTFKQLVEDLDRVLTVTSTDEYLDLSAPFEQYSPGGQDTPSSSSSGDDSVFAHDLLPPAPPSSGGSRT
T2 sequence (P22607 23-806): as the sequence (P22607 23-806 V555M) above, with M533V counted along it
T3 sequence (P21802 22-821): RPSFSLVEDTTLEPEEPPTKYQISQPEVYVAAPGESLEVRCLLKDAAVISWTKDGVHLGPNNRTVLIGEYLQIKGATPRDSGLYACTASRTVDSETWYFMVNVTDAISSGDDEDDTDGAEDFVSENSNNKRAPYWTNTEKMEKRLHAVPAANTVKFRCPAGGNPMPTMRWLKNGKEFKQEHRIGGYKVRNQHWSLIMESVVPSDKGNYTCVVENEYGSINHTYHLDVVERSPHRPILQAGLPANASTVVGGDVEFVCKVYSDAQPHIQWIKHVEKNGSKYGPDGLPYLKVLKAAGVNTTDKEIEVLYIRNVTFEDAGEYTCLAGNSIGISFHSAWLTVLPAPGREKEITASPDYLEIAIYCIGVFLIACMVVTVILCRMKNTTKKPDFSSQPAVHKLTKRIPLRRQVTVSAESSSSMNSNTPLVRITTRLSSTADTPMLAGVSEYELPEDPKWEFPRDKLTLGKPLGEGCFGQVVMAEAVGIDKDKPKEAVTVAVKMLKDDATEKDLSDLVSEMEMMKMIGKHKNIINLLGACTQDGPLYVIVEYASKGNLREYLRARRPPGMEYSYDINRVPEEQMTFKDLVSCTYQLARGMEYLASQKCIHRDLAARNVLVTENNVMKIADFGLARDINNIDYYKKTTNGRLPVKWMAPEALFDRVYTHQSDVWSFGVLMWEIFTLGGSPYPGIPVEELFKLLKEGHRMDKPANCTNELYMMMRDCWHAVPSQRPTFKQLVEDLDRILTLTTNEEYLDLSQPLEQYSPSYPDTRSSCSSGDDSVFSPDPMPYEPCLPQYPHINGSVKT

C[C@@H](O)CNC1(C)CN(c2ncc(-c3n[nH]c4ccc(O[C@H](C)c5c(Cl)cncc5Cl)c(F)c34)cc2F)C1 [Example 169, (R)-1-((1-(5-(5-((R)-1-(3,5-dichloropyridin-4-yl)ethoxy)-4-fluoro-1H-indazol-3-yl)-3-fluoropyridin-2-yl)-3-methylazetidin-3-yl)amino)propan-2-ol]
Kd (FGFR1): 300 to 1000 nM | Kd (FGFR3): 50 to 300 nM | Kd (FGFR2): > 1000 nM | Kd (FGFR3 (V555M)): 1 to 50 nM | Kd (FGFR4): 50 to 300 nM

C[C@@H](Oc1ccc2[nH]nc(-c3cnc(N4CC(C)(CP(C)(C)=O)C4)c(F)c3)c2c1F)c1c(Cl)cncc1Cl [Example 172, (R)-((1-(5-(5-(1-(3,5-dichloro-pyridin-4-yl)ethoxy)-4-fluoro-1H-inda-zol-3-yl)-3-fluoropyridin-2-yl)-3-methylazetidin-3-yl)methyl)dimethyl-phosphine oxide]
Kd (FGFR1): 300 to 1000 nM | Kd (FGFR3): 50 to 300 nM | Kd (FGFR2): 50 to 300 nM | Kd (FGFR3 (V555M)): 1 to 50 nM | Kd (FGFR4): 50 to 300 nM

CC(C)NC1(C)CN(c2ccc(-c3n[nH]c4ccc(O[C@H](C)c5c(Cl)cncc5Cl)c(F)c34)cn2)C1 [Example 173, (R)-1-(5-(5-(1-(3,5-dichloropyridin-4-yl)ethoxy)-4-fluoro-1H-indazol-3-yl)pyridin-2-yl)-N-isopropyl-3-methylazetidin-3-amine]
Kd (FGFR1): 300 to 1000 nM | Kd (FGFR3): 50 to 300 nM | Kd (FGFR2): 300 to 1000 nM | Kd (FGFR3 (V555M)): 1 to 50 nM | Kd (FGFR4): 300 to 1000 nM

C[C@@H](Oc1ccc2[nH]nc(-c3cnc(N4CC(C)(NCC5CC5)C4)c(F)c3)c2c1F)c1c(Cl)cncc1Cl [Example 174, (R)-N-(cyclo-propylmethyl)-1-(5-(5-(1-(3,5-dichloropyridin-4-yl)ethoxy)-4-fluoro-1H-indazol-3-yl)-3-fluoropyridin-2-yl)-3-methylazetidin-3-amine]
Kd (FGFR1): 300 to 1000 nM | Kd (FGFR3): 50 to 300 nM | Kd (FGFR2): > 1000 nM | Kd (FGFR3 (V555M)): 50 to 300 nM | Kd (FGFR4): 50 to 300 nM

C[C@@H](Oc1ccc2[nH]nc(-c3cnc(N4CC(C)(NCCO)C4)c(F)c3)c2c1F)c1c(Cl)cncc1Cl [Example 175, (R)-2-((1-(5-(5-(1-(3,5-dichloro-pyridin-4-yl)ethoxy)-4-fluoro-1H-indazol-3-yl)-3-fluoropyridin-2-yl)-3-methylazetidin-3-yl)amino)ethan-1-ol]
Kd (FGFR1): > 1000 nM | Kd (FGFR3): 50 to 300 nM | Kd (FGFR2): > 1000 nM | Kd (FGFR3 (V555M)): 50 to 300 nM | Kd (FGFR4): 50 to 300 nM

C[C@H](O)CNC1(C)CN(c2ncc(-c3n[nH]c4ccc(O[C@H](C)c5c(Cl)cncc5Cl)c(F)c34)cc2F)C1 [Example 176, (S)-1-((1-(5-(5-((R)-1-(3,5-dichloropyridin-4-yl)ethoxy)-4-fluoro-1H-indazol-3-yl)-3-fluoropyridin-2-yl)-3-methylazetidin-3-yl)amino)propan-2-ol]
Kd (FGFR1): 300 to 1000 nM | Kd (FGFR3): 50 to 300 nM | Kd (FGFR2): > 1000 nM | Kd (FGFR3 (V555M)): 50 to 300 nM | Kd (FGFR4): 50 to 300 nM

C[C@@H](Oc1ccc2[nH]nc(-c3ccc(N4CC(C)(N5CCCC5)C4)nc3)c2c1F)c1c(Cl)cncc1Cl [Example 177, (R)-5-(1-(3,5-dichloropyridin-4-yl)ethoxy)-4-fluoro-3-(6-(3-methyl-3-(pyrrolidin-1-yl)azetidin-1-yl)pyridin-3-yl)-1H-indazole]
Kd (FGFR1): 50 to 300 nM | Kd (FGFR3): 1 to 50 nM | Kd (FGFR2): 300 to 1000 nM | Kd (FGFR3 (V555M)): 1 to 50 nM | Kd (FGFR4): 50 to 300 nM

C[C@@H](Oc1ccc2[nH]nc(-c3cnc(N4CC(C)(CNCCO)C4)c(F)c3)c2c1)c1c(Cl)cncc1Cl [Example 178, (R)-2-(((1-(5-(5-(1-(3,5-dichloro-pyridin-4-yl)ethoxy)-1H-indazol-3-yl)-3-fluoropyridin-2-yl)-3-methylazetidin-3-yl)methyl)amino) ethanol]
Kd (FGFR1): 1 to 50 nM | Kd (FGFR3): 1 to 50 nM | Kd (FGFR2): 1 to 50 nM | Kd (FGFR3 (V555M)): 1 to 50 nM | Kd (FGFR4): 1 to 50 nM

COc1cc2[nH]nc(-c3cnc(N4CC(C)(CP(C)(C)=O)C4)c(F)c3)c2cc1O[C@H](C)c1c(Cl)cncc1Cl [Example 179, (R)-((1-(5-(5-(1-(3,5-dichloro-pyridin-4-yl)ethoxy)-6-methoxy-1H-indazol-3-yl)-3-fluoropyridin-2-yl)-3-methylazetidin-3-yl)methyl)dimethyl-phosphine oxide]
Kd (FGFR1): 1 to 50 nM | Kd (FGFR3): 1 to 50 nM | Kd (FGFR2): 1 to 50 nM | Kd (FGFR3 (V555M)): 1 to 50 nM | Kd (FGFR4): 1 to 50 nM

COc1cc2[nH]nc(-c3ccc(N4CC(C)(CP(C)(C)=O)C4)nc3)c2cc1O[C@H](C)c1c(Cl)cncc1Cl [Example 180, (R)-((1-(5-(5-(1-(3,5-dichloro-pyridin-4-yl)ethoxy)-6-meth-oxy-1H-inda-zol-3-yl)pyridin-2-yl)-3-methylazetidin-3-yl)methyl)dimethyl-phosphine oxide]
Kd (FGFR1): 1 to 50 nM | Kd (FGFR3): 1 to 50 nM | Kd (FGFR2): 1 to 50 nM | Kd (FGFR3 (V555M)): 1 to 50 nM | Kd (FGFR4): 1 to 50 nM

C[C@@H](Oc1ccc2[nH]nc(-c3cnc(N4CC(C)(N5CCOCC5)C4)c(F)c3)c2c1F)c1c(Cl)cncc1Cl [Example 183, (R)-4-(1-(5-(5-(1-(3,5-dichloro-pyridin-4-yl)ethoxy)-4-fluoro-1H-indazol-3-yl)-3-fluoropyridin-2-yl)-3-methylazetidin-3-yl)morpholine]
Kd (FGFR1): 300 to 1000 nM | Kd (FGFR3): 50 to 300 nM | Kd (FGFR2): > 1000 nM | Kd (FGFR3 (V555M)): 50 to 300 nM | Kd (FGFR4): 50 to 300 nM

C[C@@H](Oc1ccc2[nH]nc(-c3cnc(N4CC(C)(N5CCC5)C4)c(F)c3)c2c1F)c1c(Cl)cncc1Cl [Example 184, (R)-5-(1-(3,5-dichloropyridin-4-yl)ethoxy)-4-fluoro-3-(5-fluoro-6-(3′-methyl-[1,3′-biazetidin]-1′-yl)pyridin-3-yl)-1H-indazole]
Kd (FGFR1): 300 to 1000 nM | Kd (FGFR3): 1 to 50 nM | Kd (FGFR2): 300 to 1000 nM | Kd (FGFR3 (V555M)): 1 to 50 nM | Kd (FGFR4): 50 to 300 nM

C[C@@H](Oc1ccc2[nH]nc(-c3cnc(N4CC(C)(CN5CCCC5)C4)c(F)c3)c2c1F)c1c(Cl)cncc1Cl [Example 185, (R)-5-(1-(3,5-dichloropyridin-4-yl)ethoxy)-4-fluoro-3-(5-fluoro-6-(3-methyl-3-(pyrrolidin-1-ylmethyl)azetidin-1-yl)pyridin-3-yl)-1H-indazole]
Kd (FGFR1): 300 to 1000 nM | Kd (FGFR3): 50 to 300 nM | Kd (FGFR2): 300 to 1000 nM | Kd (FGFR3 (V555M)): 50 to 300 nM | Kd (FGFR4): 50 to 300 nM

C[C@@H](Oc1cc2c(-c3ccc(N4CC(C)(CN5CCOCC5)C4)nc3)n[nH]c2cc1F)c1c(Cl)cncc1Cl [Example 186, (R)-4-((1-(5-(5-(1-(3,5-dichloro-pyridin-4-yl)ethoxy)-6-fluoro-1H-indazol-3-yl)pyridin-2-yl)-3-methylazetidin-3-yl)methyl)morpho-line]
Kd (FGFR1): 1 to 50 nM | Kd (FGFR3): 1 to 50 nM | Kd (FGFR2): 1 to 50 nM | Kd (FGFR3 (V555M)): 1 to 50 nM | Kd (FGFR4): 1 to 50 nM

C[C@@H](Oc1ccc2[nH]nc(-c3ccc(N4CC(C)(CP(C)(C)=O)C4)nc3)c2c1F)c1c(Cl)cncc1Cl [Example 187, (R)-((1-(5-(5-(1-(3,5-dichloro-pyridin-4-yl)ethoxy)-4-fluoro-1H-indazol-3-yl)pyridin-2-yl)-3-methylazetidin-3-yl)methyl)dimethyl-phosphine oxide]
Kd (FGFR1): > 1000 nM | Kd (FGFR3): 50 to 300 nM | Kd (FGFR2): 300 to 1000 nM | Kd (FGFR3 (V555M)): 50 to 300 nM | Kd (FGFR4): 300 to 1000 nM
